What is called logP is a log measure of how a compound divides between an organic and an aqueous phase. Low values mean lower lipophilicity, high ones higher lipophilicity. As usually defined, the logD is the decadic logarithm of the distribution of all forms, ionised or not, between an organic phase and buffer at a given pH. The low end stands for a more hydrophilic compound, the high end for a more lipophilic compound.

Data on 11 compounds can be found in the SangsterLogP compilation.

The first series can be described thus: method code SF-AS, from DOI: 10.1016/0006-2952(66)90048-7.
Settings: not given
Compound `O=C(NC(=O)c1ccccc1O)c1ccccc1O` showed a logP of 1.92. Still for that read-out and setting: under `CC(=O)Oc1cccc(OC(C)=O)c1C(N)=O` stands -0.62. The same measure, in the same setting: under `O=C(Nc1ccccc1C(=O)O)c1ccccc1O` stands 0.74. Still for that read-out and setting: next, `O=C(NC(=O)c1ccc(O)cc1O)c1ccc(O)cc1O`: 0.86; `O=C(NC(=O)c1c(O)cccc1O)c1c(O)cccc1O`: 1.15; `O=C(O)c1ccccc1NC(=O)c1c(O)cccc1O`: 0.32.

`NC(=O)c1c(O)cccc1O` registered a lipophilicity (logP) of 0.6. Compound `NC(=O)c1ccc(O)cc1O` yielded a logP of -0.15. For `O=C(NC(=O)c1ccccc1O)c1ccccc1`, the logP came out at 1.38.

The series is the same for the next values; noted with them: pH 7.0.
In turn, `NC(=O)c1ccccc1O` showed a logD of 0.89. `O=C(Nc1ccccc1)c1c(O)cccc1O` displayed a logD of 1.43.
